Paper PMC10455806, “New Sorbicillinoids from the Mangrove Endophytic Fungus Trichoderma reesei SCNU-F0042” (Marine Drugs, 2023)
Where two headings read alike, the source gives them in different places.

Columns and labels:
Assay type in all cases: cell-based
SARS-CoV-2 (BA.2) = experiment: microbe, parasite or virus in culture; settings: for EC50: 48 h, mean from three parallel experiments, read-out: Inhibition of SARS-CoV-2 Viruses (EC50/μM)
[1] = Cell viability assay (MTT method); settings: human
Method: (§1) […] Tested cell lines were cultured in Dulbecco’s modified Eagle’s medium (DMEM) (Invitrogen, Carlsbad, CA, USA) supplemented with 5% fetal bovine serum (Hyclone, Logan, UT, USA), 2 mM L-glutamine, […] streptomycin, and 100 units/mL penicillin (Invitrogen). The cultures were maintained at 37 °C in a humidified atmosphere of 5% CO2.

HEK 293T-hACE2 cells = experiment: Cell viability assay (MTT method); settings: at 80 μM, 293T cells
Method: as §1

[2] = Severe acute respiratory syndrome coronavirus 2, HEK-293T, […]
[3] = 293T cell, MTT, mean from three parallel experiments, read-out: Cytotoxicity for 293T Cell (IC50/μM)

For `CC(=O)Oc1cc(/C=C/C=C/C(=O)O)oc(=O)c1C` [Compound 5, Acetylchrysopyrone B], the “antiviral activity against SARS-CoV-2” value (SARS-CoV-2 (BA.2)) was “no activity”, the EC50 (SARS-CoV-2 (BA.2); [2]) was greater than 80 µM and the IC50 [1, 3] was greater than 80 µM.
For `CC=CC=CC(=O)C1C(C2(C)OC(=O)C(C)=C2O)C2C(=C(O)C=CC=CCO)C(=O)C1(C)C(=O)C2(C)O` (stereo not drawn) [Compound 1, 14-hydroxybislongiquinolide], the “antiviral activity against SARS-CoV-2” value (SARS-CoV-2 (BA.2)) was “no activity”, the EC50 (SARS-CoV-2 (BA.2); [2]) was greater than 80 µM and the IC50 [1, 3] was greater than 80 µM.
For `CC1=C(O)C(C)(C2C3C(=C(O)C=CC=CCO)C(=O)C(C)(C(=O)C3(C)O)C2C(=O)C=CC=CCO)OC1=O` (stereo not drawn) [Compound 3, 14, 20-dihydroxybislongiquinolide], the “antiviral activity against SARS-CoV-2” value (SARS-CoV-2 (BA.2)) was “no activity”, the EC50 (SARS-CoV-2 (BA.2); [2]) was greater than 80 µM and the IC50 [1, 3] was greater than 80 µM.
`CCC(CC)COC(=O)[C@H](C)N[P@](=O)(OC[C@H]1O[C@@](C#N)(c2ccc3c(N)ncnn23)[C@H](O)[C@@H]1O)Oc1ccccc1` [Remdesivir, reference compound] showed an EC50 (SARS-CoV-2 (BA.2); [2]) of 1.2 µM, an IC50 (SARS-CoV-2 (BA.2); Severe acute respiratory syndrome coronavirus 2, HEK-293T, […], read-out: IC50 (positive control, SARS-CoV-2 assay)) of 1.2 µM and an IC50 [1] greater than 80 µM.
In the case of `CC=CC=CC(O)=C1C(=O)C2(C)C(=O)C(C)(O)C1C(C1(C)OC(=O)C(C)=C1O)C2C(=O)C=CC=CCO` (stereo not drawn) [Compound 2, 20-hydroxybislongiquinolide], the EC50 (SARS-CoV-2 (BA.2); [2]) is reported as 29 µM, the IC50 [1, 3] is reported as greater than 80 µM and the cytotoxicity (HEK 293T-hACE2 cells) is reported as “without cytotoxicity”.
